From US11111251B2, “Positive allosteric modulators of the muscarinic acetylcholine receptor M1” (Vanderbilt University, priority 2016, dated 2021)

Target: T1, human mAChR M1 (Homo sapiens, UniProt P11229)
T1 sequence (P11229 1-460): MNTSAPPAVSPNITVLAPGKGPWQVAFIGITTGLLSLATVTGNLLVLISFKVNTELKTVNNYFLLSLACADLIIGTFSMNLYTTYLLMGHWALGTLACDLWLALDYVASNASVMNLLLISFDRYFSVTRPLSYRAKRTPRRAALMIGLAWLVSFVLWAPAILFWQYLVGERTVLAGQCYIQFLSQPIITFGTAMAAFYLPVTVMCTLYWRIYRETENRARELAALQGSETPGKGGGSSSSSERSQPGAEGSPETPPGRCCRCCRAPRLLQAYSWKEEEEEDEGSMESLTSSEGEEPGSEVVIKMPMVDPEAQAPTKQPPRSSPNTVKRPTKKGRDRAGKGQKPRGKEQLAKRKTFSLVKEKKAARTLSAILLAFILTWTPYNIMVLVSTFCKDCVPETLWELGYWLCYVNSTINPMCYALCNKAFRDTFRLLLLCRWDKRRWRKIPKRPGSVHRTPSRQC
Test: mAChR M1 cell-based functional assay: calcium mobilization, positive allosteric modulator mode (increase in EC20 acetylcholine response)
Settings: Table 2, human M1; for EC50: read-out: Human M1 EC50; for Emax: read-out: Human M1 Emax (%)
Procedure, shortened: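 PAM potency reflects the concentration-dependent increase in calcium response to an EC20 acetylcholine challenge, given 144 s into a 300 s read after compound addition at 4 s (EC80 follows at 230 s). Cells were hM1-expressing CHO-K1, loaded 50 min with Fluo-4 AM. Curves used 11 points at 1:3 dilutions and four-parameter logistic fitting.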

Row | EC50 | Emax | SMILES
1 | 175 nM | 77.7% | Cc1nc(-c2ccc(Cc3cc(C(=O)NC4CCOCC4)nc4ccsc34)cc2)co1 [Compound 230, 7-[[4-(2-methyloxazol-4-yl)phenyl]methyl]-N-tetrahydropyran-4-yl-thieno[3,2-b]pyridine-5-carboxamide]
2 | 68.7 nM | 88.5% | O=C(NC1CC2(COC2)C1)c1cc(Cc2ccc(-c3cscn3)cc2)c2sccc2n1 [Compound 231, N-(2-oxaspiro[3.3]heptan-6-yl)-7-[(4-thiazol-4-ylphenyl)methyl]thieno[3,2-b]pyridine-5-carboxamide]
3 | 134 nM | 75.7% | O=C(NC1CCOCC1)c1cc(Cc2ccc(-c3cscn3)cc2)c2sccc2n1 [Compound 232, N-tetrahydropyran-4-yl-7-[(4-thiazol-4-ylphenyl)methyl]thieno[3,2-b]pyridine-5-carboxamide]
4 | 161 nM | 67.8% | Cc1ccc([C@H](F)c2cc(C(=O)N[C@H]3CCCC[C@@H]3O)nc3ccsc23)cn1 [Compound 233]
5 | 1370 nM | 64.6% | Cc1ccc([C@@H](F)c2cc(C(=O)N[C@H]3CCCC[C@@H]3O)nc3ccsc23)cn1 [Compound 234]
6 | 1010 nM | 71.1% | Cc1ccc(Cc2cc(C(=O)NC3CCCCCC3(C)O)nc3ccsc23)cn1 (stereo not shown) [Compound 235, N-(2-hydroxy-2-methyl-cycloheptyl)-7-[(6-methyl-3-pyridyl)methyl]thieno[3,2-b]pyridine-5-carboxamide]
7 | 2680 nM | 78.2% | Cc1cc2nc(C(=O)N[C@H]3CCC[C@@H]3O)cc(Cc3ccc(-n4cccn4)cc3)c2s1 [Compound 236, N-[(1S,2S)-2-hydroxycyclopentyl]-2-methyl-7-[(4-pyrazol-1-ylphenyl)methyl]thieno[3,2-b]pyridine-5-carboxamide]
8 | 455 nM | 85.2% | Cc1cc2nc(C(=O)N[C@H]3CCCC[C@@H]3O)cc(Cc3ccc(-n4cccn4)cc3)c2s1 [Compound 237, N-[(1S,2S)-2-hydroxycyclohexyl]-2-methyl-7-[(4-pyrazol-1-ylphenyl)methyl]thieno[3,2-b]pyridine-5-carboxamide]
9 | 108 nM | 84.7% | Cc1cc2nc(C(=O)N[C@H]3CCOC[C@@H]3O)cc(Cc3ccc(-n4cccn4)cc3)c2s1 [Compound 238, N-[(3R,4S)-3-hydroxytetrahydropyran-4-yl]-2-methyl-7-[(4-pyrazol-1-ylphenyl)methyl]thieno[3,2-b]pyridine-5-carboxamide]
10 | 3080 nM | 81.5% | Cc1cc2nc(C(=O)NC3CCOCC3)cc(Cc3ccc(-n4cccn4)cc3)c2s1 [Compound 239, 2-methyl-7-[(4-pyrazol-1-ylphenyl)methyl]-N-tetrahydropyran-4-yl-thieno[3,2-b]pyridine-5-carboxamide]
11 | > 10000 nM | 19.9% | Cc1nn(C)c(C)c1-c1ccc(Cc2cc(C(=O)N[C@@H]3CC[C@H]3O)nc3ccsc23)cc1 [Compound 240, N-[(1R,2R)-2-hydroxycyclobutyl]-7-[[4-(1,3,5-trimethylpyrazol-4-yl)phenyl]methyl]thieno[3,2-b]pyridine-5-carboxamide]
12 | > 10000 nM | 18.8% | Cc1nn(C)c(C)c1-c1ccc(Cc2cc(C(=O)NC3CC4(COC4)C3)nc3ccsc23)cc1 [Compound 241, N-(2-oxaspiro[3.3]heptan-6-yl)-7-[[4-(1,3,5-trimethylpyrazol-4-yl)phenyl]methyl]thieno[3,2-b]pyridine-5-carboxamide]
13 | > 10000 nM | 17.8% | Cc1nn(C)c(C)c1-c1ccc(Cc2cc(C(=O)N[C@H]3CCC[C@@H]3O)nc3ccsc23)cc1 [Compound 242]
14 | > 10000 nM | 17.9% | Cc1nn(C)c(C)c1-c1ccc(Cc2cc(C(=O)NC3CCOCC3)nc3ccsc23)cc1 [Compound 243, N-tetrahydropyran-4-yl-7-[[4-(1,3,5-trimethylpyrazol-4-yl)phenyl]methyl]thieno[3,2-b]pyridine-5-carboxamide]
